Measurements taken from patent US7312219B2, “Heteroaromatic inhibitors of fructose 1,6-bisphosphatase” (Metabasis Therapeutics, Inc., priority 1998, dated 2007).
Where two headings read alike, the source gives them in different places.

What was measured:
human liver FBPase = target: T1, human liver FBPase (Homo sapiens, UniProt P09467); assay: Inhibition of Human Liver FBPase; assay type: biochemical; conditions: read-out: IC50 (hlFBPase)
T1 construct: made in house; host or cells: E. coli BL21
T1 sequence (P09467 2-338 limits assumed): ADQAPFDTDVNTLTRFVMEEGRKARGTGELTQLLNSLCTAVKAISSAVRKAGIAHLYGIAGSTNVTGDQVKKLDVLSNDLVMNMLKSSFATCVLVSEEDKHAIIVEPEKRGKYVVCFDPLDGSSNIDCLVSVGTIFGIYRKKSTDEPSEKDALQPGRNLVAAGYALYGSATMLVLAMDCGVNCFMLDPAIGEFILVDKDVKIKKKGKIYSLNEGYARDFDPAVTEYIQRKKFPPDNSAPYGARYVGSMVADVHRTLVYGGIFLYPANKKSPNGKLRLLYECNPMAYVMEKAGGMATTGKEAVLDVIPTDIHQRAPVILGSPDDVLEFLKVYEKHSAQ

rat liver FBPase = target: T2, rat liver FBPase (Rattus norvegicus, UniProt P19112); assay: Inhibition of Rat Liver FBPase
T2 sequence (P19112 2-363 limits assumed): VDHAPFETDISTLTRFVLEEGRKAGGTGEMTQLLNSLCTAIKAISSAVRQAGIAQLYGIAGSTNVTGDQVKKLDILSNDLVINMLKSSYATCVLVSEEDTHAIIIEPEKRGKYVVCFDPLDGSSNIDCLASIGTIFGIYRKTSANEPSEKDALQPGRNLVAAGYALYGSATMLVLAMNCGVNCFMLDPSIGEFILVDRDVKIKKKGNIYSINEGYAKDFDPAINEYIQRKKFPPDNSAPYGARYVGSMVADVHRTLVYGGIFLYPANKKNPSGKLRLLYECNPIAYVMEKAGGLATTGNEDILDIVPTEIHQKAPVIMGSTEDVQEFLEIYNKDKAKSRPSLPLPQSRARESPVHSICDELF

[1] = Estimation of the Oral Bioavailability of Phosphonic Acids and their Prodrugs; assay type: in vivo, rat; conditions: Sprague-Dawley, rat, urine; fasted rats, oral 10–50 mg/kg, 24 h urinary recovery of phosphonic acid, oral vs intravenous
Description: Phosphonic acids were dissolved in water, and the solution adjusted to neutrality with sodium hydroxide. Prodrugs were dissolved in 10% ethanol/90% polyethlene glycol (mw 400). Compound was administered by oral gavage to 18-hour fasted Sprague-Dawley rats (220–250 g) at doses ranging from 10–50 mg/kg. The rats were subsequently placed in metabolic cages and urine was collected for 24 hours. The quantity of phosphonic acid excreted into urine was determined by HPLC analysis as described in Example G. In a separate study, urinary recovery was determined following intravenous (tail vein) administration of compound (in the case of the prodrugs, the appropriate parent phosphonic acid was administered i.v.).

[2] = target: T3, Glycogen Phosphorylase (rabbit muscle) (Oryctolagus cuniculus, UniProt P00489); assay: AMP Site/Enzyme Selectivity: Glycogen Phosphorylase; assay type: biochemical; conditions: activation; read-out: Glycogen Phosphorylase (act.)
T3 construct: Enzyme (rabbit muscle) was purchased from Sigma; purchased Sigma; host or cells: rabbit muscle
T3 sequence (P00489 2-843 limits assumed): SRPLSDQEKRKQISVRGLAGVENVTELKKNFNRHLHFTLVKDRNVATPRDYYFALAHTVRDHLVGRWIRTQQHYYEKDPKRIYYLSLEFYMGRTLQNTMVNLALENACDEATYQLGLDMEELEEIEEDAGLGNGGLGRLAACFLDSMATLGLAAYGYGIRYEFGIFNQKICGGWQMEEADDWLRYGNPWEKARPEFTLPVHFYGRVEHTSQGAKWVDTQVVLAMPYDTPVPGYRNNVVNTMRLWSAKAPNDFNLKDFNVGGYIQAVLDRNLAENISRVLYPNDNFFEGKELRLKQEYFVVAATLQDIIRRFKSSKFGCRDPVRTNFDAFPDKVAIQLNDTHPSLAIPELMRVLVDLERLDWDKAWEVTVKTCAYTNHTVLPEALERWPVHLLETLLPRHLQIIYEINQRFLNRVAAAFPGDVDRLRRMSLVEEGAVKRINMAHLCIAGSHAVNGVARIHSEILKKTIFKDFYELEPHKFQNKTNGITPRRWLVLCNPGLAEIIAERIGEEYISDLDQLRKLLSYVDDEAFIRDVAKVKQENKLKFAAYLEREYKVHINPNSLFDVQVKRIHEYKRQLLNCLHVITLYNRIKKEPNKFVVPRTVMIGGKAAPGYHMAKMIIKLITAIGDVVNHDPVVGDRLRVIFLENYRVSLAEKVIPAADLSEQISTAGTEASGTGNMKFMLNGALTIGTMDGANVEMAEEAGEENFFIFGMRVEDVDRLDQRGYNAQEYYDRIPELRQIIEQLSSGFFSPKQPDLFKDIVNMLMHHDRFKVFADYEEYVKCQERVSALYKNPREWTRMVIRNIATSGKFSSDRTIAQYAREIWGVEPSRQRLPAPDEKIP

Porcine heart AMPDA = assay: AMP Site/Enzyme Selectivity: Adenosine Monophosphate Deaminase; assay type: biochemical; conditions: read-out: AMP Deaminase (inh.)
[3] = system: Gluconeogenesis in Rat Hepatocytes; assay: Inhibition of Gluconeogenesis in Rat Hepatocytes; assay type: cell-based; conditions: Hepatocyte, 10 mM lactate, 1 mM pyruvate, 1 hour incubation, read-out: IC50 Glucose Production
Description: Hepatocytes were prepared from overnight fasted Sprague-Dawley rats (250–300 g) according to the procedure of Berry and Friend (Berry, M. N., Friend, D. S., 1969, J. Cell. Biol. 43, 506–520) as modified by Groen (Groen, A. K., Sips, H. J., Vervoorn, R. C., Tager, J. M. , 1982, Eur. J. Biochem. 122, 87–93). Hepatocytes (75 mg wet weight/ml) were incubated in 1 ml Krebs-bicarbonate buffer containing 10 mM Lactate, 1 mM pyruvate, 1 mg/ml BSA, and test compound concentrations from 1 to 500 μM. Incubations were carried out in a 95% oxygen, 5% carbon dioxide atmosphere in closed, 50-ml Falcon tubes submerged in a rapidly shaking water bath (37° C.). After 1 hour, an aliquot (0.25 ml) was removed, transferred to an Eppendorf tube and centrifuged. 50 μl of supernatant was then assayed for glucose content using a Sigma Glucose Oxidase kit as per the manufacturer's instructions.

[4] = target: T4, Adenylate Kinase (rabbit muscle) (Oryctolagus cuniculus, UniProt P00569); assay: AMP Site/Enzyme Selectivity: Adenylate Kinase; assay type: biochemical; conditions: read-out: Adenylate Kinase (inh.)
T4 construct: Enzyme (rabbit muscle) was purchase from Sigma; purchased Sigma; host or cells: rabbit muscle
T4 sequence (P00569 1-194): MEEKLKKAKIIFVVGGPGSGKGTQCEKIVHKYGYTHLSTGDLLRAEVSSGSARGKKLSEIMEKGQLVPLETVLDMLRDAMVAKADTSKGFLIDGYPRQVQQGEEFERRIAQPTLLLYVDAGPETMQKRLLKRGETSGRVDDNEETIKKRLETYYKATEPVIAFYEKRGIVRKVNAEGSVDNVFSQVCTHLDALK

Fasted Rats = assay: Blood Glucose Lowering Following Intravenous Administration to Fasted Rats; assay type: in vivo, rat; conditions: Rattus norvegicus, iv; 18 h fasted Sprague Dawley rats, 10 mg/kg i.v., 1 hour, relative to saline-treated controls
Description: Inhibitors were disolved in water and the solution adjusted to neutrality with NaOH. Blood samples were obtained from the tail vein of conscious animals just prior to injection and after 1 hour. Blood glucose was measured using a HemoCue Inc. glucose analyzer according to the instructions of the manufacturer.

Human adenosine kinase = target: T5, Human adenosine kinase (Homo sapiens, UniProt P55263); assay: AMP Site/Enzyme Selectivity: Adenosine Kinase; assay type: biochemical; conditions: read-out: Adenosine Kinase (inh.)
T5 construct: made in house; host or cells: E. coli
T5 sequence (P55263 1-345 isoform P55263-2): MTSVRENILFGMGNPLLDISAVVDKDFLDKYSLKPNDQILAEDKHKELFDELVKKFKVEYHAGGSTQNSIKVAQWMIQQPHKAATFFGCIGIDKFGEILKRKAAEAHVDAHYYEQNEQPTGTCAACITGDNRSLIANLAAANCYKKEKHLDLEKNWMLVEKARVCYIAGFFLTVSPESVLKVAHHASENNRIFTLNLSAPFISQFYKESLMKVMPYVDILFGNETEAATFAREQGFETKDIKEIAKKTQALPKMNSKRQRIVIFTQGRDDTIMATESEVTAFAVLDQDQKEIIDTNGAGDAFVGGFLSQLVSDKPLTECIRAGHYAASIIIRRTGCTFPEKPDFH

Fasted Rat = assay: Glucose Lowering Following Oral Administration to the Fasted Rat; assay type: in vivo; conditions: oral gavage, 18-hour fasted rats, dose 90 mg/kg, time point 3 h, relative to saline controls
Description: Compounds were administered by oral gavage to 18-hour fasted, Sprague Dawley rats (250–300 g, n =3/4/group). Phosphonic acids were prepared in deionized water, and the solution adjusted to neutrality with solidum hydroxide. Prodrugs were dissolved in polyethylene glycol (mw 400). […] The table below indicates the maximum glucose lowering achieved relative to control animals dosed with saline.

[5] = Analysis of Drug Levels and Liver Accumulation in Rats; assay type: in vivo, rat; conditions: fasted rats, 10 mgs/kg i.v., one hour post injection, liver
Description: The compound was dissolved in water and the solution adjusted to neutrality with NaOH. One hour post injection rats were anesthetized with halothane and a liver biopsy (approx. 1 g) was taken as well as a blood sample (2 ml) from the posterior vena cava. A heparin flushed syringe and needle were used for blood collection. The liver sample was immediately homogenized in ice-cold 10% perchloric acid (3 ml), centrifuged, and the supernatant neutralized with ⅓rd volume of 3 M KOH/3 M KHCO3. […] Plasma was prepared from the blood sample by centrifugation and extracted by addition of methanol to 60% (v/v). The methanolic extract was clarified by centrifugation and filtration and then analyzed by HPLC as described above.

Row | bioavailability [1] | EC50 [2] | IC50 (Porcine heart AMPDA) | IC50 [4] | IC50 (Human adenosine kinase) | SMILES | IC50 (human liver FBPase) | inhibition in vivo at 10 mg/kg (Fasted Rats) | also measured
1 |  |  |  |  |  | Nc1ncnc2c1ncn2[C@@H]1O[C@H](COP(=O)(O)O)[C@@H](O)[C@H]1O [AMP, reference compound] | 1 µM |  | IC50 (rat liver FBPase; read-out: IC50 (rlFBPase)): 20 µM
2 |  |  |  |  |  | CCCc1cnc(N)nc1-c1ccc(P(=O)(O)O)o1 [Compound 16.1, 2-amino-5-propyl-4-[2-(5-phosphono)furanyl]pyrimidine] |  |  | melting point: 258 to 259 °C
3 | 4% | > 100 µM | > 10 µM | > 500 µM | > 10 µM | CC(C)Cc1sc(N)nc1-c1ccc(P(=O)(O)O)o1 [Compound 3.1, 2-amino-5-isobutyl-4-[2-(5-phosphono)furanyl]thiazole] |  | 65% | IC50 [3]: 2.5 µM
4 | 21% | > 100 µM | > 10 µM | > 500 µM | > 10 µM | CC(C)Cc1oc(N)nc1-c1ccc(P(=O)(O)O)o1 [Compound 10.1, 2-amino-5-isobutyl-4-[2-(5-phosphono)furanyl]oxazole] |  | 51% | % Glucose Lowering (maximum) (Fasted Rat): 55%; Liver Conc. [5]: 35.6 ± 4.2 nmol/g
5 |  |  |  |  |  | CC(C)Cc1[se]c(N)nc1-c1ccc(P(=O)(O)O)o1 [Compound 3.70, 2-Amino-5-isobutyl-4-[2-(5-phosphono)furanyl]selenazole] | 0.04 µM |  | IC50 (rat liver FBPase): 0.15 µM
